Test results from ChEMBL document CHEMBL3885861, “Open TG-GATES”.

Organism: Rattus norvegicus
Experiment: Open TG-GATES - Regimen: Daily Repeat
Type: toxicity, organism-based, Sprague-Dawley
Design: regimen Daily Repeat, gender Male, age 6 weeks
Conditions: in vivo, po, route gavage; for APTT / Bas / Eos / Fbg / Hb / Ht / Lym / MCH / MCHC / MCV / Mono / Neu / Plat / RBC / Ret / WBC / PT: tissue Blood; for KIDNEY_L / KIDNEY_R / KIDNEY_TOTAL: tissue Kidney; for ALP / ALT / AST / BUN / CRE / Ca / Cl / DBIL / GLC / IP / K / LDH / Na / PL / RALB / TBIL / TC / TG / TP / gamma-GTP: tissue Plasma
[1] = 0 mg/kg, 72 h, dose level Control, time 3 day
[2] = 0 mg/kg, […], dose level Control, time 7 day
[3] = 0 mg/kg, […], dose level Control, time 14 day
[4] = 0 mg/kg, […], dose level Control, time 28 day
[5] = 45 mg/kg, 72 h, dose level Low, time 3 day
[6] = 45 mg/kg, […], dose level Low, time 7 day
[7] = 45 mg/kg, […], dose level Low, time 14 day
[8] = 45 mg/kg, […], dose level Low, time 28 day

CC(=O)Oc1ccccc1C(=O)O [ASPIRIN]
TERMINAL_BW [1]: 238.8 g
APTT [1]: 19.3 s
Bas [1]: 0%
Eos [1]: 1%
Fbg [1]: 216.6 mg/dL
Hb [1]: 13.1 g/dL
Ht [1]: 38.5%
Lym [1]: 82%
MCH [1]: 21.2 pg
MCHC [1]: 34.2%
MCV [1]: 62.1 fL
Mono [1]: 2.4%
Neu [1]: 13.4%
Plat [1]: 121.3 x10_4/uL
RBC [1]: 620 x10_4/ul
Ret [1]: 5.9%
WBC [1]: 98.5 x10_2/uL
KIDNEY_L [1]: 1.1 g
KIDNEY_R [1]: 1.1 g
KIDNEY_TOTAL [1]: 2.1 g
ALP [1]: 970.4 IU/L
ALT [1]: 35.6 IU/L
AST [1]: 73.2 IU/L
BUN [1]: 14.8 mg/dL
CRE [1]: 0.4 mg/dL
Ca [1]: 10.8 mg/dL
Cl [1]: 102.2 meq/L
DBIL [1]: 0.082 mg/dL
GLC [1]: 203.2 mg/dL
IP [1]: 7.1 mg/dL
K [1]: 3.9 meq/L
LDH [1]: 223 IU/L
Na [1]: 140.4 meq/L
PL [1]: 148.8 mg/dL
RALB [1]: 3.4 g/dL
TBIL [1]: 0.1 mg/dL
TC [1]: 74.6 mg/dL
TG [1]: 99.2 mg/dL
TP [1]: 5.7 g/dL
gamma-GTP [1]: 1 IU/L
TERMINAL_BW [2]: 272.8 g
TERMINAL_BW [3]: 324.4 g
TERMINAL_BW [4]: 389.9 g
APTT [2]: 21.2 s
Bas [2]: 0%
Eos [2]: 1%
Fbg [2]: 211.2 mg/dL
Hb [2]: 13.7 g/dL
Ht [2]: 40.3%
Lym [2]: 85.6%
MCH [2]: 21.1 pg
MCHC [2]: 34%
MCV [2]: 62.1 fL
Mono [2]: 2%
Neu [2]: 11%
Plat [2]: 128.4 x10_4/uL
RBC [2]: 648.4 x10_4/ul
Ret [2]: 5.3%
WBC [2]: 135.5 x10_2/uL
APTT [3]: 20.2 s
Bas [3]: 0%
Eos [3]: 0.8%
Fbg [3]: 216.8 mg/dL
Hb [3]: 14.2 g/dL
Ht [3]: 40.6%
Lym [3]: 82.6%
MCH [3]: 20.8 pg
MCHC [3]: 34.9%
MCV [3]: 59.6 fL
Mono [3]: 2%
Neu [3]: 13.4%
RBC [3]: 681.6 x10_4/ul
Ret [3]: 3.4%
WBC [3]: 134.5 x10_2/uL
APTT [4]: 21.5 s
Bas [4]: 0%
Eos [4]: 1%
Fbg [4]: 210.8 mg/dL
Hb [4]: 15.7 g/dL
Ht [4]: 45.3%
Lym [4]: 81.8%
MCH [4]: 19.3 pg
MCHC [4]: 34.7%
MCV [4]: 55.6 fL
Mono [4]: 2%
Neu [4]: 13.8%
PT [4]: 12.6 s
Plat [4]: 116.7 x10_4/uL
RBC [4]: 815.4 x10_4/ul
Ret [4]: 1.8%
WBC [4]: 109 x10_2/uL
KIDNEY_L [2]: 1.2 g
KIDNEY_R [2]: 1.2 g
KIDNEY_TOTAL [2]: 2.3 g
KIDNEY_L [3]: 1.3 g
KIDNEY_R [3]: 1.3 g
KIDNEY_TOTAL [3]: 2.5 g
KIDNEY_L [4]: 1.4 g
KIDNEY_R [4]: 1.4 g
KIDNEY_TOTAL [4]: 2.8 g
ALP [2]: 844.4 IU/L
ALT [2]: 29.2 IU/L
AST [2]: 59.2 IU/L
BUN [2]: 15.8 mg/dL
CRE [2]: 0.4 mg/dL
Ca [2]: 10.7 mg/dL
Cl [2]: 102.4 meq/L
DBIL [2]: 0.096 mg/dL
GLC [2]: 210.8 mg/dL
IP [2]: 7.6 mg/dL
K [2]: 3.6 meq/L
LDH [2]: 178.2 IU/L
Na [2]: 141 meq/L
PL [2]: 137.4 mg/dL
RALB [2]: 3.4 g/dL
TBIL [2]: 0.1 mg/dL
TC [2]: 66.4 mg/dL
TG [2]: 100.2 mg/dL
TP [2]: 5.5 g/dL
gamma-GTP [2]: 0.6 IU/L
ALP [3]: 726.8 IU/L
ALT [3]: 33.4 IU/L
AST [3]: 62.2 IU/L
BUN [3]: 17.8 mg/dL
CRE [3]: 0.4 mg/dL
Ca [3]: 10.8 mg/dL
Cl [3]: 103 meq/L
DBIL [3]: 0.1 mg/dL
GLC [3]: 193.6 mg/dL
IP [3]: 7.2 mg/dL
K [3]: 3.9 meq/L
LDH [3]: 220.2 IU/L
Na [3]: 141 meq/L
PL [3]: 151.2 mg/dL
RALB [3]: 3.3 g/dL
TBIL [3]: 0.1 mg/dL
TC [3]: 67.8 mg/dL
TG [3]: 152.8 mg/dL
TP [3]: 5.8 g/dL
gamma-GTP [3]: 1 IU/L
ALP [4]: 605.4 IU/L
ALT [4]: 33.2 IU/L
AST [4]: 60.8 IU/L
BUN [4]: 17 mg/dL
CRE [4]: 0.5 mg/dL
Ca [4]: 10.1 mg/dL
Cl [4]: 103.2 meq/L
DBIL [4]: 0.1 mg/dL
GLC [4]: 213 mg/dL
IP [4]: 6.3 mg/dL
K [4]: 3.7 meq/L
LDH [4]: 150 IU/L
Na [4]: 141 meq/L
PL [4]: 132.4 mg/dL
RALB [4]: 3.4 g/dL
TBIL [4]: 0.2 mg/dL
TC [4]: 65.4 mg/dL
TG [4]: 111.6 mg/dL
TP [4]: 6 g/dL
gamma-GTP [4]: 1.2 IU/L
TERMINAL_BW [5]: 237.2 g
APTT [5]: 19.4 s
Bas [5]: 0%
Eos [5]: 0.8%
Fbg [5]: 214 mg/dL
Hb [5]: 13.7 g/dL
Ht [5]: 40.3%
Lym [5]: 81%
MCH [5]: 21.4 pg
MCHC [5]: 33.9%
MCV [5]: 62.9 fL
Mono [5]: 2.8%
Neu [5]: 13.6%
Plat [5]: 113.2 x10_4/uL
RBC [5]: 641.2 x10_4/ul
Ret [5]: 5.8%
WBC [5]: 103.1 x10_2/uL
KIDNEY_L [5]: 1.1 g
KIDNEY_R [5]: 1.1 g
KIDNEY_TOTAL [5]: 2.2 g
ALP [5]: 890.4 IU/L
ALT [5]: 45 IU/L
AST [5]: 86.4 IU/L
BUN [5]: 13.8 mg/dL
CRE [5]: 0.4 mg/dL
Ca [5]: 10.7 mg/dL
Cl [5]: 102.2 meq/L
DBIL [5]: 0.09 mg/dL
GLC [5]: 205.2 mg/dL
IP [5]: 6.8 mg/dL
K [5]: 3.8 meq/L
LDH [5]: 315.2 IU/L
Na [5]: 140.4 meq/L
PL [5]: 146.2 mg/dL
RALB [5]: 3.5 g/dL
TBIL [5]: 0.1 mg/dL
TC [5]: 71 mg/dL
TP [5]: 5.7 g/dL
gamma-GTP [5]: 0.6 IU/L
TERMINAL_BW [6]: 270.5 g
TERMINAL_BW [7]: 315.9 g
TERMINAL_BW [8]: 394.7 g
APTT [6]: 22.5 s
Bas [6]: 0%
Eos [6]: 1%
Fbg [6]: 205.8 mg/dL
Hb [6]: 13.5 g/dL
Ht [6]: 39.9%
Lym [6]: 84.2%
MCH [6]: 20.8 pg
MCHC [6]: 33.9%
MCV [6]: 61.4 fL
Mono [6]: 2.2%
Neu [6]: 12.2%
PT [6]: 12.6 s
Plat [6]: 120.9 x10_4/uL
RBC [6]: 650.4 x10_4/ul
Ret [6]: 5.3%
WBC [6]: 120.2 x10_2/uL
APTT [7]: 19.9 s
Bas [7]: 0%
Eos [7]: 1.2%
Fbg [7]: 220.6 mg/dL
Hb [7]: 14.7 g/dL
Ht [7]: 42.3%
Lym [7]: 77.2%
MCH [7]: 20.9 pg
MCHC [7]: 34.9%
MCV [7]: 59.8 fL
Mono [7]: 2%
Neu [7]: 18.2%
Plat [7]: 128.5 x10_4/uL
RBC [7]: 707.4 x10_4/ul
Ret [7]: 3.6%
WBC [7]: 138.1 x10_2/uL
APTT [8]: 20.3 s
Bas [8]: 0%
Eos [8]: 1.4%
Fbg [8]: 207.2 mg/dL
Hb [8]: 15.4 g/dL
Ht [8]: 44.6%
Lym [8]: 80.4%
MCH [8]: 19.2 pg
MCHC [8]: 34.4%
MCV [8]: 55.7 fL
Mono [8]: 2.4%
Neu [8]: 14.2%
Plat [8]: 101 x10_4/uL
RBC [8]: 801 x10_4/ul
Ret [8]: 2%
WBC [8]: 104.5 x10_2/uL
KIDNEY_L [6]: 1.2 g
KIDNEY_R [6]: 1.2 g
KIDNEY_TOTAL [6]: 2.3 g
KIDNEY_L [7]: 1.3 g
KIDNEY_R [7]: 1.3 g
KIDNEY_TOTAL [7]: 2.5 g
KIDNEY_L [8]: 1.5 g
KIDNEY_R [8]: 1.5 g
KIDNEY_TOTAL [8]: 3 g
ALP [6]: 901.6 IU/L
ALT [6]: 27.8 IU/L
AST [6]: 62.2 IU/L
BUN [6]: 16 mg/dL
CRE [6]: 0.4 mg/dL
Ca [6]: 10.6 mg/dL
Cl [6]: 102.6 meq/L
DBIL [6]: 0.096 mg/dL
GLC [6]: 219 mg/dL
IP [6]: 7.3 mg/dL
K [6]: 4.1 meq/L
LDH [6]: 213.4 IU/L
Na [6]: 140.4 meq/L
PL [6]: 140.6 mg/dL
RALB [6]: 3.2 g/dL
TBIL [6]: 0.1 mg/dL
TC [6]: 73.4 mg/dL
TG [6]: 107.4 mg/dL
TP [6]: 5.5 g/dL
gamma-GTP [6]: 0.6 IU/L
ALP [7]: 902.4 IU/L
ALT [7]: 40.6 IU/L
AST [7]: 76 IU/L
BUN [7]: 16 mg/dL
CRE [7]: 0.4 mg/dL
Ca [7]: 10.6 mg/dL
Cl [7]: 102.8 meq/L
DBIL [7]: 0.1 mg/dL
GLC [7]: 189.8 mg/dL
IP [7]: 7.1 mg/dL
K [7]: 4.2 meq/L
LDH [7]: 244 IU/L
Na [7]: 140.8 meq/L
PL [7]: 153 mg/dL
RALB [7]: 3.5 g/dL
TBIL [7]: 0.1 mg/dL
TC [7]: 71.8 mg/dL
TG [7]: 133.6 mg/dL
TP [7]: 5.8 g/dL
gamma-GTP [7]: 0.6 IU/L
ALP [8]: 733.8 IU/L
ALT [8]: 33 IU/L
AST [8]: 67.2 IU/L
BUN [8]: 17 mg/dL
CRE [8]: 0.5 mg/dL
Ca [8]: 10.3 mg/dL
Cl [8]: 102.6 meq/L
DBIL [8]: 0.094 mg/dL
GLC [8]: 232.8 mg/dL
IP [8]: 6.7 mg/dL
K [8]: 3.9 meq/L
LDH [8]: 186.2 IU/L
Na [8]: 141.2 meq/L
PL [8]: 143.2 mg/dL
RALB [8]: 3.4 g/dL
TBIL [8]: 0.2 mg/dL
TC [8]: 68.6 mg/dL
TG [8]: 125 mg/dL
TP [8]: 6.1 g/dL
gamma-GTP [8]: 0.6 IU/L
TERMINAL_BW (150 mg/kg, 72 h, dose level Middle, time 3 day): 239.9 g
